Data on 52 compounds can be found in US9266834B2, “1, 4-disubstituted 3-cyano-pyridone derivatives and their use as positive allosteric modulators of MGLUR2-receptors” (JANSSEN PHARMACEUTICALS, INC., priority 2006, dated 2016).

One data set concerns the target T1, human mGluR2 receptor (Homo sapiens, UniProt Q14416).
T1 construct: expressed in transfected cells; host or cells: CHO cells (membrane preparation)
The experiment in a line: [35S]GTPγS binding assay (GTPγS-PAM): positive allosteric modulation in presence of glutamate at EC25, membranes from transfected CHO cells. To be noted: in presence of mGluR2 agonist glutamate at predetermined EC25 concentration, averages of duplicate values of 11-concentration response curves, read-out: GTPgS - hR2 PAM pEC50 (converted). Type of data set: biochemical. Summed up:
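Membranes came from butyrate-stimulated CHO cells expressing human mGluR2, used at 15 μg/well in HEPES pH 7.4 with 100 mM NaCl, 3 mM MgCl2, 50 μM GDP and saponin. Compound (0.3 nM-50 μM, 11 concentrations) plus glutamate at EC25 was preincubated 30 min at 30° C., then 0.1 nM [35S]GTPγS was added for 30 min. Filter-bound radioactivity was counted, nonspecific binding was taken with 10 μM GTP, and curves were fitted by four-parameter logistic.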
(In general: GTPγS resists hydrolysis and so accumulates on activated G proteins.)

Molecules are shown by their SMILES.

By melting point is commonly meant the temperature, or range, at which the solid turns liquid.

T1 sequence (Q14416 19-872): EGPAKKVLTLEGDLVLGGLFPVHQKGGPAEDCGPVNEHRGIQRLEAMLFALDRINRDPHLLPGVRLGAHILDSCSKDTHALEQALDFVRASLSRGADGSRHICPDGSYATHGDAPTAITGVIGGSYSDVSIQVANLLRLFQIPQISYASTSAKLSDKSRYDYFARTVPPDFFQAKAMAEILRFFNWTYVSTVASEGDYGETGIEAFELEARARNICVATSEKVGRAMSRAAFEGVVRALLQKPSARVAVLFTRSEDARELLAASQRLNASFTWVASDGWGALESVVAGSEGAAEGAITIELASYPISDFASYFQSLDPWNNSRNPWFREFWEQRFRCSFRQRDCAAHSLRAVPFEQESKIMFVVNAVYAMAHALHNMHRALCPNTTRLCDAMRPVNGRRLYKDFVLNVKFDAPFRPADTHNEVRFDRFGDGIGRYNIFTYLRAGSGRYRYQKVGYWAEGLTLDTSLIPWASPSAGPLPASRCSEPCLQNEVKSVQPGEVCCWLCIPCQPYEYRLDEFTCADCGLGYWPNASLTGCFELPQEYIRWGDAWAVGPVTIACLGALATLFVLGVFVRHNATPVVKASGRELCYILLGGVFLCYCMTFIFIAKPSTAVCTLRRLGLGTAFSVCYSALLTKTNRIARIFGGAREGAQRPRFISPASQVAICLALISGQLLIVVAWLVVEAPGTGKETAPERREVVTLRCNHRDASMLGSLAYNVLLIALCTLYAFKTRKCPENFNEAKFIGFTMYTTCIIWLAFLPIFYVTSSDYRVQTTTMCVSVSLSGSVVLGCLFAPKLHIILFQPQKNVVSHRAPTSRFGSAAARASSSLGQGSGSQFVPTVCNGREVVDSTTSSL

`CC(C)CCn1ccc(-c2cccc(O)c2)c(C#N)c1=O` [1-096] came in with a melting point of 201 °C. For the same compound, on human mGluR2 receptor, the EC50 is 1.58 µM.

In turn, `CC(C)CCn1ccc(N2CC(OCc3ccc(OC(F)(F)F)cc3)C2)c(C#N)c1=O` [5-008] gave a melting point of 102 °C. For the same compound, the EC50 at human mGluR2 receptor was 0.251 µM.

For `CC(C)CCn1ccc(-c2ccc(Oc3ccc(C#N)cc3)cc2)c(C#N)c1=O` [1-152], the melting point was 193 °C. Also, the EC50 at human mGluR2 receptor is 0.1 µM.

In turn, `CC(C)CCn1ccc(-c2ccc(OCc3cccc(Cl)c3)cc2)c(C#N)c1=O` [1-149] gave a melting point of 120 °C. Further, the EC50 on human mGluR2 receptor is 0.0501 µM.

Compound `CC(C)CCn1ccc(OCc2ccccc2)c(C#N)c1=O` [1-275] gave a melting point of 174 °C. Further, on human mGluR2 receptor, the EC50 was 1.26 µM.

For `CC(=O)Nc1ccc(-c2ccn(CCC(C)C)c(=O)c2C#N)cc1` [1-176], the melting point turned out to be 198 °C. Moreover, the EC50 on human mGluR2 receptor is 5.01 µM.

`N#Cc1c(N2CCC(c3ccccc3)CC2)ccn(Cc2ccc(OC(F)(F)F)cc2)c1=O` [4-062] came in with a melting point of 139 °C. The EC50 on human mGluR2 receptor is 0.0398 µM.

The compound `CC(C)CCn1ccc(-c2ccc(NCc3ccc(F)cc3)cc2)c(C#N)c1=O` [1-200] registered a melting point of 162 °C. Besides, on human mGluR2 receptor, the EC50 was 0.0794 µM.

The compound `N#Cc1c(-c2ccc(Oc3ccccc3)cc2)ccn(Cc2ccc(OC(F)(F)F)cc2)c1=O` [1-041] came in with a melting point of 155 °C. For the same compound, at human mGluR2 receptor, the EC50 was 0.251 µM.

For `CC(C)CCn1ccc(-c2ccc(OCc3ccncc3)cc2)c(C#N)c1=O` [1-159], the melting point was determined as 171 °C. For the same compound, the EC50 on human mGluR2 receptor was 0.501 µM.

The compound `CC(C)CCn1ccc(N2CCc3c(oc4ccccc34)C2)c(C#N)c1=O` [5-041] registered a melting point of 130 °C. Also, on human mGluR2 receptor, the EC50 was 0.0501 µM.

The compound `CC(C)CCn1ccc(-c2ccc(OCc3cccc(F)c3)cc2)c(C#N)c1=O` [1-146] came in with a melting point of 139 °C. At human mGluR2 receptor, the EC50 is 0.0631 µM.

The compound `CC(C)CCn1ccc(N2CCC(n3ccc4cc(F)ccc43)CC2)c(C#N)c1=O` [4-037] showed a melting point of 78 °C. In addition, the EC50 at human mGluR2 receptor was 0.126 µM.

Turning to `N#Cc1c(-c2cccs2)ccn(CC2CCCCC2)c1=O` [1-008], the melting point was 148 °C. Further, on human mGluR2 receptor, the EC50 was 0.251 µM.

In turn, `CC(C)CCn1ccc(N2CCC(C(=O)c3ccccc3)CC2)c(C#N)c1=O` [4-012] displayed a melting point of 296 °C. For the same compound, the EC50 at human mGluR2 receptor is 0.398 µM.

On to `CCOC(=O)c1ccc(-c2cccc(COc3ccn(CCC(C)C)c(=O)c3C#N)c2)cc1` [1-290], for which the melting point was 148 °C. Further, at human mGluR2 receptor, the EC50 is 0.158 µM.

Consider `CC(C)CCn1ccc(N2CCC(N3CCc4ccccc4C3)CC2)c(C#N)c1=O` [4-034], for which the melting point was determined as 253 °C. Moreover, the EC50 on human mGluR2 receptor is 3.16 µM.

In turn, `CC(C)CCn1ccc(N2CCN(c3nc4ccccc4o3)CC2)c(C#N)c1=O` [2-035] yielded a melting point of 288 °C. Further, the EC50 at human mGluR2 receptor is 1 µM.

For the compound `COc1ccc(-c2ccn(CCC(C)C)c(=O)c2C#N)c(F)c1` [1-113, 3-cyano-4-(2-fluoro-4-methoxyphenyl)-1-(3-methylbutyl)pyridine-2(1H)-one], the melting point was found to be 65 °C. In addition, at human mGluR2 receptor, the EC50 was 0.631 µM.

The compound `CC(C)CCn1ccc(N2CCC(c3nc4ccccc4o3)CC2)c(C#N)c1=O` [4-038] displayed a melting point of 214 °C. In addition, the EC50 at human mGluR2 receptor is 0.398 µM.

Regarding `COc1cc(-c2ccn(CCC(C)C)c(=O)c2C#N)ccc1N1CCOCC1` [1-225], the melting point worked out at 151 °C. Also, the EC50 at human mGluR2 receptor is 2 µM.

With `N#Cc1c(N2CCN(CC(=O)c3ccccc3)CC2)ccn(Cc2ccc(OC(F)(F)F)cc2)c1=O` [2-046], the melting point turned out to be 92 °C. In addition, the EC50 at human mGluR2 receptor was 3.16 µM.

For the compound `CCCCn1ccc(-c2cccs2)c(C#N)c1=O` [1-059], the melting point was 103 °C. Moreover, the EC50 at human mGluR2 receptor was 5.01 µM.

With `CC(=O)NCCOc1ccc(-c2ccn(CCC(C)C)c(=O)c2C#N)cc1` [1-128], the melting point was 107 °C. For the same compound, the EC50 at human mGluR2 receptor was 3.16 µM.

The compound `CCCCn1ccc(N2CCN(Cc3cc(F)cc(C(F)(F)F)c3)CC2)c(C#N)c1=O` [2-001] registered a melting point of 183 °C. Besides, the EC50 at human mGluR2 receptor is 3.16 µM.

`CC(C)CCn1ccc(-c2ccc(OCc3ccc(C#N)cc3)cc2)c(C#N)c1=O` [1-153] had a melting point of 171 °C. For the same compound, the EC50 on human mGluR2 receptor is 0.0501 µM.

For the compound `N#Cc1c(N2CCN(Cc3ccc(OC(F)(F)F)c(Cl)c3)CC2)ccn(CC2CC2)c1=O` [2-039], the melting point was found to be 125 °C. In addition, at human mGluR2 receptor, the EC50 was 0.794 µM.

The compound `N#Cc1c(N2CCN(Cc3cc(F)cc(C(F)(F)F)c3)CC2)ccn(CC2CC2)c1=O` [2-038] yielded a melting point of 140 °C. At human mGluR2 receptor, the EC50 is 5.01 µM.

As to `CC(C)CCn1ccc(-c2ccc(N3CCOCC3)cc2)c(C#N)c1=O` [1-223, 3-cyano-4-(4-(N-morpholyl)phenyl)-1-(3-methylbutyl)pyridine-2(1H)-one], the melting point came out at 171 °C. In addition, the EC50 at human mGluR2 receptor was 2 µM.

As for `CC(C)CCn1ccc(N2CCN(c3nccc(C(F)(F)F)n3)CC2)c(C#N)c1=O` [2-029], the melting point was found to be 155 °C. The EC50 at human mGluR2 receptor was 0.251 µM.

For the compound `COc1ccc(-c2ccn(Cc3ccc(C(F)(F)F)cc3)c(=O)c2C#N)cc1` [1-024], the melting point amounted to 181 °C. Also, at human mGluR2 receptor, the EC50 is 0.126 µM.

For `CC(C)CCn1ccc(N2CCC(N(C)Cc3ccc(F)cc3)CC2)c(C#N)c1=O` [4-027], the melting point was determined as 113 °C. Also, at human mGluR2 receptor, the EC50 is 1.26 µM.

Compound `CCCCn1ccc(-c2ccc(OCc3cccc(C)n3)cc2)c(C#N)c1=O` [1-063] gave a melting point of 102 °C. The EC50 on human mGluR2 receptor was 1 µM.

In turn, `N#Cc1c(NC2CCN(Cc3ccc(OC(F)(F)F)c(Cl)c3)CC2)ccn(CC2CC2)c1=O` [3-010] registered a melting point of 187 °C. Also, the EC50 at human mGluR2 receptor was 1.58 µM.

Compound `CC(C)CCn1ccc(-c2ccc(C(C)(C)C)cc2)c(C#N)c1=O` [1-086] yielded a melting point of 168 °C. Moreover, at human mGluR2 receptor, the EC50 was 0.0631 µM.

Compound `N#Cc1c(-c2ccc3[nH]ccc3c2)ccn(Cc2ccc(OC(F)(F)F)cc2)c1=O` [5-051] returned a melting point of 166 °C. Besides, the EC50 on human mGluR2 receptor is 0.251 µM.

Turning to `CC(C)CCn1ccc(-c2ccc(CN(C)C)cc2)c(C#N)c1=O` [1-173], the melting point turned out to be 130 °C. The EC50 on human mGluR2 receptor was 6.31 µM.

Take `CC(C)CCn1ccc(-c2ccc(-c3ccccc3)cc2)c(C#N)c1=O` [1-093]: the melting point stood at 172 °C. The EC50 at human mGluR2 receptor was 0.0251 µM.

The compound `N#Cc1c(-c2cccs2)ccn(CCCc2ccccc2)c1=O` [1-052] came in with a melting point of 118 °C. Besides, the EC50 at human mGluR2 receptor is 2 µM.

For `CCCCn1ccc(N2CCN(Cc3ccc(OC(F)(F)F)c(Cl)c3)CC2)c(C#N)c1=O` [2-002], the melting point was found to be 127 °C. In addition, the EC50 at human mGluR2 receptor was 0.316 µM.

Compound `CC(C)CCn1ccc(-c2ccc(OC(C)C)c(Cl)c2)c(C#N)c1=O` [1-117] gave a melting point of 166 °C. On human mGluR2 receptor, the EC50 was 0.0631 µM.

`CC(C)CCn1ccc(-c2ccc(Cl)cc2)c(C#N)c1=O` [1-091] showed a melting point of 137 °C. The EC50 at human mGluR2 receptor is 1.58 µM.

As for `COc1ccc(Oc2ccn(CCC(C)C)c(=O)c2C#N)cc1` [1-282], the melting point is 153 °C. In addition, the EC50 on human mGluR2 receptor was 0.794 µM.

Regarding `N#Cc1c(N2CCC(N3Cc4ccc(F)cc4C3)CC2)ccn(Cc2ccc(F)cc2)c1=O` [4-061], the melting point came to 175 °C. Moreover, the EC50 at human mGluR2 receptor was 1.58 µM.

`CCC(C)Oc1ccc(-c2ccn(CCC(C)C)c(=O)c2C#N)cc1F` (centres unmarked) [1-115] displayed a melting point of 154 °C. The EC50 on human mGluR2 receptor was 0.1 µM.

`CC(C)Cn1ccc(N2CCN(Cc3ccc(OC(F)(F)F)c(Cl)c3)CC2)c(C#N)c1=O` [2-010] displayed a melting point of 112 °C. Further, at human mGluR2 receptor, the EC50 was 1 µM.

For `CC(C)CCn1ccc(-c2ccc(N(C)C)cc2)c(C#N)c1=O` [1-172], the melting point came out at 137 °C. The EC50 at human mGluR2 receptor was 0.126 µM.

With `COc1ccc(CNc2ccc(-c3ccn(CCC(C)C)c(=O)c3C#N)cc2)cc1` [1-203], the melting point stood at 173 °C. The EC50 at human mGluR2 receptor is 0.316 µM.

Compound `CC(C)CCn1ccc(OCC2CCN(Cc3cccc(C(F)(F)F)c3)CC2)c(C#N)c1=O` [3-009] displayed a melting point of 117 °C. Moreover, the EC50 on human mGluR2 receptor was 0.158 µM.

In turn, `CC(C)CCn1ccc(-c2ccc(OCc3ccccc3)c(F)c2)c(C#N)c1=O` [1-148] yielded a melting point of 173 °C. Besides, the EC50 at human mGluR2 receptor was 0.0501 µM.

`CCCOc1ccc(-c2ccn(CCC(C)C)c(=O)c2C#N)cc1` [1-105] showed a melting point of 107 °C. The EC50 on human mGluR2 receptor is 0.398 µM.

The compound `COc1ccc2c(c1)C1CCCN(c3ccn(CCC(C)C)c(=O)c3C#N)C1CC2` (centres unmarked) [5-035] displayed a melting point of 169 °C. For the same compound, the EC50 at human mGluR2 receptor was 1.58 µM.
